Results taken from patent publication US6380194B1 (Janssen Pharmaceutica N.V., priority 1996, dated 2002).

Experiments:
HIV-1 = test: Inhibition of HIV-induced cytopathic effect in MT-4 cells (MTT); assay type: cell-based; conditions: dose achieving 50% protection of HIV-infected MT-4 cells, mean, number of experiments in brackets
Description: (§1) A rapid, sensitive and automated assay procedure was used for the in vitro evaluation of anti-HIV agents. An […] T4-cell line, MT-4, which was previously shown (Koyanagi et al., Int. J. Cancer, 36, 445-451, 1985) to be highly susceptible to and permissive for HIV infection, served as the target cell line. Inhibition of the HIV-induced cytopathic effect was used as the end point. The viability of both HIV- and mock-infected cells was assessed spectrophotometrically via the in situ reduction of 3-(4,5-dimethylthiazol-2-yl)-2,5-diphenyltetrazolium bromide (MTT). The 50% cytotoxic concentration (CC50 in μM) was defined as the concentration of compound that reduced the absorbance of the mock-infected control sample by 50%. The percent protection achieved by the compound in HIV-infected cells was calculated by the following formula: [formula]
(§2) whereby (ODT)HIV is the optical density measured with a given concentration of the test compound in HIV-infected cells; (ODC)HIV is the optical density measured for the control untreated HIV-infected cells; (ODC)MOCK is the optical density measured for the control untreated mock-infected cells; all optical density values were determined at 540 nm. The dose achieving 50% protection according to the above formula was defined as the 50% inhibitory concentration (IC50 in μM). The ratio of CC50 to IC50 was defined as the selectivity index (SI).

mock-infected MT-4 cells = test: Cytotoxicity in mock-infected MT-4 cells (MTT)
Description: as §1, §2

[1] = Cytotoxicity in mock-infected MT-4 cells (MTT); conditions: human
Description: as §1, §2

[2] = Human immunodeficiency virus 1, MT4

## COc1cccc(Cc2nc(N)nc(Nc3ccc(C#N)cc3)n2)c1 [Compound 47]
HIV-1
  IC50: 0.082 µM
mock-infected MT-4 cells
  CC50: > 20 µM

## N#Cc1ccc(Nc2nc(Cc3c(Cl)cccc3Cl)nc(NCC(O)CO)n2)cc1 (racemic) [Compound 26, (±)-4-[[4-[(2,6-dichlorophenyl)methyl]-6-[(2,3-dihydroxypropyl)amino]-1,3,5-triazin-2-yl]amino]benzonitrile]
HIV-1; [2]
  IC50: 0.068 µM
[1]; mock-infected MT-4 cells
  CC50: 59.7 µM

## CC(=N)Nc1nc(Cc2c(Cl)cccc2Cl)nc(Nc2ccc(C#N)cc2)n1 [Compound 28]
HIV-1
  IC50: 0.003 µM
mock-infected MT-4 cells
  CC50: > 100 µM

## COC(=O)CN(c1ccc(C#N)cc1)c1nc(N)nc(Cc2c(Cl)cccc2Cl)n1 [Compound 39]
HIV-1; [2]
  IC50: 0.078 µM
[1]
  CC50: > 20 µM

## CC(C)NC(=O)Nc1nc(Cc2c(Cl)cccc2Cl)nc(Nc2ccc(C#N)cc2)n1 [Compound 6, N-[4-[(4-cyanophenyl)amino]-6-[(2,6-dichlorophenyl)methyl]-1,3,5-triazin-2-yl]-N′-(1-methylethyl)urea]
[1]; mock-infected MT-4 cells
  CC50: > 100 µM

## N#Cc1ccc(Nc2nc(Cc3c(Cl)cccc3Cl)nc(NC(CCO)C(N)=O)n2)cc1 (racemic) [Compound 34, (±)-2-[[4-[(4-cyanophenyl)amino]-6-[(2,6-dichlorophenyl)amino]-6-[(2,6-dichlorophenyl)methyl]-1,3,5-triazin-2-yl]amino-4-hydroxybutanamide]
HIV-1
  IC50: 0.057 µM
mock-infected MT-4 cells
  CC50: 42.3 µM

## CN(C)c1nc(Cc2c(Cl)cccc2Cl)nc(N(c2ccc(C#N)cc2)c2ccc(C#N)cc2)n1 [Compound 38, 4,4′-[[4-[(2,6-dichlorophenyl)methyl]-6-(dimethylamino)-1,3,5-triazin-2-yl]imino]bisbenzonitrile]
[1]; mock-infected MT-4 cells
  CC50: > 100 µM

## N#Cc1ccc(Nc2nc(Cc3c(Cl)cccc3Cl)nc(NC(=N)N)n2)cc1 [Compound 20, N-[4-[(4-cyanophenyl)amino]-6-[(2,6-dichlorophenyl)methyl]-1,3,5-triazin-2-yl]-guanidine]
[1]; mock-infected MT-4 cells
  CC50: 4.3 µM

## N#Cc1ccc(Nc2nc(N)nc(Cc3c(Cl)cccc3Cl)n2)cc1 [Compound 1, 4-[[4-amino-6-[(2,6-dichlorophenyl)methyl]-1,3,5-triazin-2-yl]amino]benzonitrile]
[1]; mock-infected MT-4 cells
  CC50: > 100 µM

## N#Cc1ccc(Nc2nc(Cc3c(Cl)cccc3Cl)nc(NN)n2)cc1 [Compound 15, 4-[[4-[(2,6-dichlorophenyl)methyl]-6-hydrazino-1,3,5-triazin-2yl]amino]benzonitrile]
[1]; mock-infected MT-4 cells
  CC50: 44.6 µM

## N#Cc1ccc(Nc2nc(N)nc(C(CC3CC3)c3c(Cl)cccc3Cl)n2)cc1 (racemic) [Compound 61]
HIV-1
  IC50: 6.9 µM
mock-infected MT-4 cells
  CC50: 53.4 µM

## N#Cc1ccc(Nc2nc(Cc3c(Cl)cccc3Cl)nc(NCC(N)=O)n2)cc1 [Compound 14, [N-[4-[(4-cyanophenyl)amino]-6-[(2,6-dichlorophenyl)methyl]-1,3,5-triazin-2-yl]]aminoacetamide]
[1]; mock-infected MT-4 cells
  CC50: 9.1 µM

## CN(C)CCNc1nc(Cc2c(Cl)cccc2Cl)nc(Nc2ccc(C#N)cc2)n1 [Compound 29]
HIV-1
  IC50: 0.05 µM

## N#Cc1ccc(Nc2nc(Cc3c(Cl)cccc3Cl)nc(NO)n2)cc1 [Compound 33, 4-[[4-[(2,6-dichlorophenyl)methyl]-6-(hydroxyamino)-1,3,5-triazin-2-yl]amino]benzonitrile]
[1]; mock-infected MT-4 cells
  CC50: 14.1 µM

## N#Cc1ccc(Nc2nc(Cc3c(Cl)cccc3Cl)nc(NCC(=O)O)n2)cc1 [Compound 16, N-[4-[(4-cyanophenyl)amino]-6-[(2,6-dichlorophenyl)methyl]-1,3,5-triazin-2-yl]glycine]
[1]; mock-infected MT-4 cells
  CC50: 79.9 µM

## N#Cc1ccc(Nc2nc(N)nc(Cc3c(Cl)ccc4[nH]ccc34)n2)cc1 [Compound 8, 4-[[4-amino-6-[(5-chloro-1H-indol-4-yl)methyl]-1,3,5-triazin-2-yl]amino]benzonitrile]
[1]; mock-infected MT-4 cells
  CC50: 14.4 µM

## CCOc1cccc(Cc2nc(N)nc(Nc3ccc(C#N)cc3)n2)c1 [Compound 48]
HIV-1
  IC50: 0.074 µM
mock-infected MT-4 cells
  CC50: > 20 µM

## NC(=O)c1ccc(Nc2nc(N)nc(Cc3c(Cl)ccc4[nH]ccc34)n2)cc1 [Compound 9, 4-[[4-amino-6-[(5-chloro-1H-indol-4-yl)methyl]-1,3,5-triazin-2-yl]amino]benzamide]
[1]; mock-infected MT-4 cells
  CC50: 54.4 µM

## CC(=O)Nc1nc(Cc2c(Cl)cccc2Cl)nc(Nc2ccc(C#N)cc2)n1 [Compound 22, N-[4-[(4-cyanophenyl)amino]-6-[(2,6-dichlorophenyl)methyl]-1,3,5-triazin-2-yl]-acetamide]
[1]; mock-infected MT-4 cells
  CC50: > 100 µM

## CN(C)C=Nc1nc(Cc2c(Cl)cccc2Cl)nc(Nc2ccc(C#N)cc2)n1 [Compound 62, 4-[[4-[(2,6-dichlorophenyl)methyl]-6-[[(dimethylamino)methylene]amino]-1,3,5-triazin-2-yl]amino]benzonitrile]
[1]; mock-infected MT-4 cells
  CC50: > 100 µM

## N#Cc1ccc(Nc2nc(Cc3c(Cl)cccc3Cl)nc(NCCCNC(N)=O)n2)cc1 [Compound 23, N-[3-[[4-[(4-cyanophenyl)amino]-6-[(2,6-dichlorophenyl)methyl]-1,3,5-triazin-2-yl]amino]propyl]urea]
[1]; mock-infected MT-4 cells
  CC50: 36.7 µM
